Experimental data published in patent US20160340656A1, “PEPTIDES DERIVED FROM GSE 24.2 FOR TREATING DISEASES CAUSED BY OXIDATIVE STRESS AND DAMAGE TO DNA” (CONSEJO SUPERIOR DE INVESTIGACIONES CIENTÍFICAS (CSIC), priority 2013, published 2016).

Legend:
[1] = system: HeLa cells; experiment: Internalisation of fluorescein-labelled peptides, confocal fluorescence microscopy; type: cell-based
Description: FIG. 21. Transfection of peptides GSE4 and GSE4NLS1 in HeLa cells. Peptides GSE4 and GSE4NLS1 (SEQ ID No. 7) labelled with fluorescein and obtained by chemical synthesis were transfected into HeLa cells using the Proteojuice reagent and viewed in a confocal fluorescence microscope at 9, 24 and 48 hours after transfection.
FIG. 22. Internalisation of peptides GSE4 and GSE4NLS1 in HeLa cells. Peptides GSE4 and GSE4NLS1 (SEQ ID No. 7) labelled with fluorescein and obtained by chemical synthesis were added to the culture medium of HeLa cells and viewed in a confocal fluorescence microscope at 9, 24 and 48 hours after transfection.
Given the ability of sequence NLS1 to contribute to the activity of GSE24.2, a synthetic peptide into which this sequence was placed in the 3′ region of peptide GSE4 was constructed as this was the peptide for which the greatest telomerase activation was obtained. The peptides obtained by chemical synthesis were labelled with fluorescein to facilitate their visualisation in a fluorescence microscope. Two experiments were performed in parallel, in one the peptides were transfected using Proteojuice reagent and in the other they were added directly to the culture medium. […] An important difference observed was that when the peptides were added directly to the culture medium, the peptide entered into a higher number of cells than when Proteojuice was used. The reagent provided greater effectiveness for internalisation but into a small number of cells.

[2] = system: promoter of c-myc in 293T cells; experiment: c-myc promoter luciferase reporter activity; type: cell-based; conditions: 24 hours, relative to GSE24.2
Description: FIG. 20. Activity of constructions GSE24.2NLS1-3 and GSE24.2NLS2-3 on the c-myc promoter. The expression vectors for the constructions GSE24.2, GSE24.2N LS1-3 and GSE24.2NLS2-3 were transfected (using lipofectamine) into 293T cells together with the reporter gene of the promoter of c-myc, pXP1, and 24 hours later the luciferase activity was measured using a commercial kit. The values are expressed as relative activity, considering 1 as the value of luciferase with the empty expression vector pCDNA3myc.
With the aim of evaluating biological activity of the constructions containing the signals NLS1-3 and N LS2-3, they were transfected into 293T cells together with the reporter gene of the promoter of c-myc and the luciferase activity activated by both constructions GSE24.2NLS1-3 and GSE24.2NLS2-3 was evaluated in relation to GSE24.2.

[3] = system: AT2078 cells of patients with ataxia telangiectasia; experiment: Damage to DNA in AT2078 cells: histone H2AX Ser139 foci after expression of GSE4 or SGSE4; type: cell-based, human; conditions: 200 cells
Description: FIG. 14. Determination of damage to DNA in AT cells after transfecting peptides GSE4 and SGSE4: AT2078 AT cells were infected with a lentiviral vector expressing GSE4, SGSE4 or a GFP empty vector and 24 hours later were fixed for processing and hybridised with an antibody against phosphorylated histone H2AX (Ser139). Control C-1787 cells were used as the negative control. Next they were hybridised with a fluorescein-labelled antibody and were stained with DAPI to locate the nuclei.
As the peptide denominated GSE4 was the smallest sized of the peptides with ability to inhibit damage to DNA, we studied if another peptide with a similar sequence localised in the sequence of peptide GSE24.2 had the same activity or if that activity was specific to GSE4. Peptide SGSE4 (SEQ ID No. 15) is similar to GSE4 in sequence (amino acids LDPK/LDKP that constitute consensus sequences for pseudouridine synthases) and size and is found in the TRUBII domain of dyskerin. Cell lines AT2078 of patients with ataxia telangiectasia were used for this test. Cell line C-1787 was used as the control cell line. The cells were infected with the bicistronic lentiviral vector pCMV-GFP-GSE4, SGSE4 or GFP. After 48 hours of infection the cells were fixed with formaldehyde and then permeabilized by treating them with Triton X-100. The damage to DNA was estimated by studying the signal after hybridisation of the cells with an antibody against histone H2AX Ser139 and subsequent hybridisation with an antibody bound to fluorescein. The number of foci with stain for histone H2AX per nucleus was determined by confocal microscopy in a total of 200 cells and the data represented as a percentage of cells with a specific number of foci.

GFINLDKPSNPKRKR (GSE4NLS1-3; listed as Homo sapiens)
entry into cells ([1]; peptide simply added to the culture medium): entered the cells | entry into cells ([1]; transfected using Proteojuice reagent): entered the cells

GFINLDKPSNPSSHEVVAWIRRILRVEKTGHSGTLDPKVTGCLIVCIERATRLVKKRKR (GSE24.2NLS1-3; listed as Homo sapiens) [GSE24.2 with NLS1 in the 3′ position]
activation of expression of the promoter of c-myc (luciferase) [2]: more effectively than GSE24.2

HSGTLDPKVTG (listed as Homo sapiens) [SGSE4, reference compound]
AT cells in which overall damage to DNA is corrected [3]: not able to correct the damage to DNA

B1: GFINLDKPSNPSSHEVVAWIRRILRVEKTGHSGTLDPKVTGCLIVCIERATRLVKKKEKKKSK (peptide, listed as Homo sapiens)
chain: GFINLDKPSNPSSHEVVAWIRRILRVEKTGHSGTLDPKVTGCLIVCIERATRLVKKKEKKKSK
modifications: GSE24.2NLS2-3
notes: GSE24.2 with NLS2 in the 3′ position
activation of expression of the promoter of c-myc (luciferase) [2]: more effectively than GSE24.2
